Test results reported in patent US20120178738A1, “DIBENZO [B,F] [1,4]OXAZAPINE COMPOUNDS” (ARYX THERAPEUTICS, INC., priority 2007, published 2012).
Where two headings read alike, the source gives them in different places.

Tests used:
human 5HT1A receptors = molecular target: T1, human 5HT1A receptors (Homo sapiens, UniProt P08908); assay: h5-HT1A receptor radioligand binding ([3H]8OH-DPAT); settings: pKi reported on a scale of 1 through 5
T1 construct: expressed in transfected cells; host or cells: Chinese hamster ovary cells (membranes)
T1 sequence (P08908 1-422): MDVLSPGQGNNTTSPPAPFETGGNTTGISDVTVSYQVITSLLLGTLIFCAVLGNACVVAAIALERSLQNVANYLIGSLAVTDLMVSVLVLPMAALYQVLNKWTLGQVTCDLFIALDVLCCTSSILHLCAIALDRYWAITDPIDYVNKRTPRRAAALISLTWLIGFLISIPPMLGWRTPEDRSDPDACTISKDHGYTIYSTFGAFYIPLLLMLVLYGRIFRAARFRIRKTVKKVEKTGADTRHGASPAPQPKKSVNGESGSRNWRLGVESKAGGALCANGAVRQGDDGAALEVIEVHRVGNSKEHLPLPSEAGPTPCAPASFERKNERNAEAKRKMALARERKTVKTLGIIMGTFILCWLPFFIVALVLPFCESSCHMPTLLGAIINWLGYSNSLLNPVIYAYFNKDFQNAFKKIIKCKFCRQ
Procedure: (§1) Consistent with standard competition radioligand binding assays, the methodology was based on displacement of radioligand from tissues (or cell lines) bearing the receptor of interest (Cheng, Y. and Prusoff, W. H. (1973). Biochem. Pharmacol. 22, 3099-3108). The measurements were based on the binding of a single concentration of radiolabeled ligand in the presence of various concentrations of unlabeled ligand.
(§2) Tissues (or cellular plasma membrane fractions) were incubated in the presence of radioligand at equilibrium and in the presence of a range of concentrations of the test compounds (which were non-radiolabeled), and the displaced radioligand was separated from the membranes by filtration. Nonspecific binding was assessed by measuring displacement of the radioligand in the presence of a compound known to block binding of the radioligand to the receptor. Finally, the concentration-response relationship for radioligand displacement (corrected for non-specific binding) was used to assess binding of the test compound to the receptor.

human M3 receptors = molecular target: T2, human M3 receptors (Homo sapiens, UniProt P20309); assay: hM3 receptor radioligand binding ([3H]NMS)
T2 construct: expressed in transfected cells; host or cells: Chinese hamster ovary cells (membranes)
T2 sequence (P20309 whole entry): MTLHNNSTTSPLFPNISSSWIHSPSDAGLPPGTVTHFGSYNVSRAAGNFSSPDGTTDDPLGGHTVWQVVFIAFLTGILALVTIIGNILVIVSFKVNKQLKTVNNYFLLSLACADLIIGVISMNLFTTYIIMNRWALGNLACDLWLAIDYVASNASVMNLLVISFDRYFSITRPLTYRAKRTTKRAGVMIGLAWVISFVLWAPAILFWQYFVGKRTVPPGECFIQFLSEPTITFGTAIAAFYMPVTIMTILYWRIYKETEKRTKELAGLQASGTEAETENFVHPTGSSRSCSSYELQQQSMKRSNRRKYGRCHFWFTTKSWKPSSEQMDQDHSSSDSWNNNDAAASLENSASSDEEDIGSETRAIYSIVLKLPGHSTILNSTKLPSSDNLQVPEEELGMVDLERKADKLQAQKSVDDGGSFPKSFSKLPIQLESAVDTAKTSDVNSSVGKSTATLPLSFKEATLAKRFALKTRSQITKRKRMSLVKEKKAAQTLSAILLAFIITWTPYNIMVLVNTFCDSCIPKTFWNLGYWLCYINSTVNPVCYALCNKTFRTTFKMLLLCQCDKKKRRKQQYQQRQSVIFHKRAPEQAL
Procedure: as §1, §2

[1] = molecular target: T3, human D2L dopamine receptors (Homo sapiens, UniProt P14416); assay: hD2L receptor radioligand binding ([3H]spiperone); settings: pKi reported on a scale of 1 through 5; read-out: D2L (pKi) (converted)
T3 construct: expressed in transfected cells; host or cells: insect Sf9 cells (membranes)
T3 sequence (P14416 whole entry): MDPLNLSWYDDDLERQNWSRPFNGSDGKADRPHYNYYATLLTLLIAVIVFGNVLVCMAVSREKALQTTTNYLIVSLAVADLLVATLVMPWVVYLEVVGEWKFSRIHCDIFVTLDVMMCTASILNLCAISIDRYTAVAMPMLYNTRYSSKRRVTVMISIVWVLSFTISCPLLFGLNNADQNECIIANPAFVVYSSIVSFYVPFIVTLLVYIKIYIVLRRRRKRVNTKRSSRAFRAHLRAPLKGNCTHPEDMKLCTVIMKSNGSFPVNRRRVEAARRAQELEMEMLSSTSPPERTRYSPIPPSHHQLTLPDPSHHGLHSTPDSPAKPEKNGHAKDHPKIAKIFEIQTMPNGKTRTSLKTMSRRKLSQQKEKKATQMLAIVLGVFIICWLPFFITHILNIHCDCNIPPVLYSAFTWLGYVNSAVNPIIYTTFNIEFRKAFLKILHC
Procedure: as §1, §2

human 5HT2C receptors = molecular target: T4, human 5HT2C receptors (Homo sapiens, UniProt P28335); assay: h5-HT2C receptor radioligand binding ([3H]Mesulergine); settings: pKi reported on a scale of 1 through 5
T4 construct: expressed in transfected cells; host or cells: human embryo kidney cells (membranes)
T4 sequence (P28335 33-458): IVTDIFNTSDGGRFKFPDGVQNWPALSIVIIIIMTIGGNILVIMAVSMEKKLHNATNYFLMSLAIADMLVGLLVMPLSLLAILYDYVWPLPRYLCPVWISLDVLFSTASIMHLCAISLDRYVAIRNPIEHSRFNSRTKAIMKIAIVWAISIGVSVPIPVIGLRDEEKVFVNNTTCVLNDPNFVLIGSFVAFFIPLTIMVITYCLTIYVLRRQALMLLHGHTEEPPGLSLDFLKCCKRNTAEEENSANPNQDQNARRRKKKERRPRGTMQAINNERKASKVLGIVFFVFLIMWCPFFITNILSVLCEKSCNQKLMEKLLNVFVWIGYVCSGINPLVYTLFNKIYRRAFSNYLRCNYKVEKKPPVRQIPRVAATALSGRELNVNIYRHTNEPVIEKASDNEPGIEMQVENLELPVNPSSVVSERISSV
Procedure: The measurements were based on the binding of a single concentration of radiolabeled ligand in the presence of various concentrations of unlabeled ligand.
as §2

5-HT2A receptor = molecular target: T5, 5-HT2A receptor (Rattus norvegicus, UniProt P14842); assay: cell-based
T5 construct: Eight strips of tissue (0.5 cm long) were cut. and were mounted in 10 ml organ baths; tissue Charles River Laboratories; host or cells: rat aorta strips, endothelium removed
T5 sequence (P14842 whole entry): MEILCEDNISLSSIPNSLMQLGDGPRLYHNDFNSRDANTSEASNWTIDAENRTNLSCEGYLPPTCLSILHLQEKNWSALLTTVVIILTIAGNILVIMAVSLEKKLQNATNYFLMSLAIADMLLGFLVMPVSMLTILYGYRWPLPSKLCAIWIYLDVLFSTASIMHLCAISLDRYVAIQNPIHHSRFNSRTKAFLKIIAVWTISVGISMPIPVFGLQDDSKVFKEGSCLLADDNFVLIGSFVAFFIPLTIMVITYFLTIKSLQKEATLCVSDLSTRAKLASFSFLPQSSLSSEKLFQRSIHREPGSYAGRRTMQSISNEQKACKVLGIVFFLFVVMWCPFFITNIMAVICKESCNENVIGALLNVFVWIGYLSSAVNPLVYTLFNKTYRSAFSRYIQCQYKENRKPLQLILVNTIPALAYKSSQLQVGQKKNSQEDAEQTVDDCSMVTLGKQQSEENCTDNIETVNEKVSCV
Procedure: The rat aorta (approximately 7 cm) was isolated and removed from the animal (male Sprague Dawley rat, Charles River Laboratories, Hollister, Calif.). The endothelium was removed mechanically. Eight strips of tissue (0.5 cm long) were cut. and were mounted in 10 ml organ baths kept at 37° C. with Krebs solution (composition in mM: NaCl (118.2), KCl (4.6), CaCl2 (2.5), MgSO4 (1.2), KH2PO4 (1.2), NaHCO3 (24.8) and dextrose (10.0)) that was constantly aerated with carbogen gas (95% O2/5% CO2) to obtain a pH of 7.4. The tissues were subjected to a resting tension of 2 g (3 times, 15 minutes apart, equilibrated in Krebs solution). The tissues were then washed 15 minutes later. Ten minutes later, the tissues were then exposed to 0.1 μM phenylephrine. At the maximal effect, 1 μM acetylcholine was added to confirm the absence of endothelium and then washed twice, 2 minutes apart.
Contractions were recorded as changes in tension from baseline and expressed as a percentage of the maximum response of the agonist (5-HT) concentration-effect curve. Agonist concentration-response curves were fitted using a nonlinear iterative fitting program (GraphPad Prism) using the relationship of Parker and Waud (Parker, R. B. and Waud, D. R. (1971). Pharmacological estimation of drug-receptor dissociation constants. Statistical evaluation. I. Agonists. J. Pharmacol. Exp. Ther., 177, 1-12). Agonist potency was expressed as EC50 (molar concentration of agonist producing 50% of the maximum response). Concentration-ratios (CRs) were determined from EC50 values in the presence and absence of antagonist and antagonist affinity estimates (pKB and pA2 values) were determined. All data are expressed as mean±s.e. mean.

human H1 receptors = molecular target: T6, human H1 receptors (Homo sapiens, UniProt P35367); assay: hH1 receptor radioligand binding ([3H]Pyrilamine); settings: pKi reported on a scale of 1 through 5
T6 construct: expressed in transfected cells; host or cells: Chinese hamster ovary cells (membranes)
T6 sequence (P35367 whole entry): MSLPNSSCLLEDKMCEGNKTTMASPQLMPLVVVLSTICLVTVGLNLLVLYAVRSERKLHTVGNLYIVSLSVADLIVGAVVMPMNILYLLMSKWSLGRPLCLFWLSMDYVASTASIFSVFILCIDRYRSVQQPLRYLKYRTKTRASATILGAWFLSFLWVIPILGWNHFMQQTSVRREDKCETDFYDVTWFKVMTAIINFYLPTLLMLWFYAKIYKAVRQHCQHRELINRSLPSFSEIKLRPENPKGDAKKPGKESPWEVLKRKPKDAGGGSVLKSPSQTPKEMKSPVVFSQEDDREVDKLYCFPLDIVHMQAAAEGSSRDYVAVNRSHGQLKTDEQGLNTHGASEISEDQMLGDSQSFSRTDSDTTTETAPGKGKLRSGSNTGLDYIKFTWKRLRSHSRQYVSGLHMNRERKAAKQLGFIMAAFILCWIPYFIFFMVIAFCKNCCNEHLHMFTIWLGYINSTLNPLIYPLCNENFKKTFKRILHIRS
Procedure: as §1, §2

[2] = molecular target: T7, human D2s dopamine receptors (Homo sapiens, UniProt P14416); assay: hD2S receptor radioligand binding ([3H]spiperone); settings: pKi reported on a scale of 1 through 5
T7 construct: expressed in transfected cells; host or cells: Chinese hamster ovary cells (membranes)
T7 sequence (P14416 1-414 isoform P14416-2): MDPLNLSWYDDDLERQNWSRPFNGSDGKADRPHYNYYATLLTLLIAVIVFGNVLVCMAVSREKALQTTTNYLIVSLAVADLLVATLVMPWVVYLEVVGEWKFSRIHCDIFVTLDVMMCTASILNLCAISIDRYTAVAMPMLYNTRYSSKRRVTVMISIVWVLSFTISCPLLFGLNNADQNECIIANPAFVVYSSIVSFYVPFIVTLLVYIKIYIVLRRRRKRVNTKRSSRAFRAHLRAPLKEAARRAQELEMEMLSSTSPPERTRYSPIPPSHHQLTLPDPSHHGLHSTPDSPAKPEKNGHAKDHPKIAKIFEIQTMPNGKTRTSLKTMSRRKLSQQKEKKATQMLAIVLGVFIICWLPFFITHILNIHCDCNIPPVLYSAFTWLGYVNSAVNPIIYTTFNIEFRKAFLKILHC
Procedure: as §1, §2

human M1 receptors = molecular target: T8, human M1 receptors (Homo sapiens, UniProt P11229); assay: hM1 receptor radioligand binding ([3H]NMS); settings: pKi reported on a scale of 1 through 5
T8 construct: expressed in transfected cells; host or cells: Chinese hamster ovary cells (membranes)
T8 sequence (P11229 1-460): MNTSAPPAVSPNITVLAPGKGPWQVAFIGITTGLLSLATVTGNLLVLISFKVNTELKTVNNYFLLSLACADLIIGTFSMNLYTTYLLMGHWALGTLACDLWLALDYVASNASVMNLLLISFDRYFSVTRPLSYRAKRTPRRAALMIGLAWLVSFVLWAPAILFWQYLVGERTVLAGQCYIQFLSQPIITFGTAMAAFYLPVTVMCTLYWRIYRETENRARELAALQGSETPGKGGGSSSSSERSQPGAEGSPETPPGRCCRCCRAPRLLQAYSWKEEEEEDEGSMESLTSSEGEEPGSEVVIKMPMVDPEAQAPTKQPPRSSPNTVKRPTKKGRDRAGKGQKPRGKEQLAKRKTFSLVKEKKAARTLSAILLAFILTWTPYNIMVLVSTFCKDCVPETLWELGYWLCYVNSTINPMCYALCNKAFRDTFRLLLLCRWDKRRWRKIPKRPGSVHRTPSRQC
Procedure: as §1, §2

human 5HT7 receptors = molecular target: T9, human 5HT7 receptors (Homo sapiens, UniProt P34969); assay: h5-HT7 receptor radioligand binding ([3H]5-CT)
T9 construct: expressed in transfected cells; host or cells: Chinese hamster ovary cells (membranes)
T9 sequence (P34969 whole entry): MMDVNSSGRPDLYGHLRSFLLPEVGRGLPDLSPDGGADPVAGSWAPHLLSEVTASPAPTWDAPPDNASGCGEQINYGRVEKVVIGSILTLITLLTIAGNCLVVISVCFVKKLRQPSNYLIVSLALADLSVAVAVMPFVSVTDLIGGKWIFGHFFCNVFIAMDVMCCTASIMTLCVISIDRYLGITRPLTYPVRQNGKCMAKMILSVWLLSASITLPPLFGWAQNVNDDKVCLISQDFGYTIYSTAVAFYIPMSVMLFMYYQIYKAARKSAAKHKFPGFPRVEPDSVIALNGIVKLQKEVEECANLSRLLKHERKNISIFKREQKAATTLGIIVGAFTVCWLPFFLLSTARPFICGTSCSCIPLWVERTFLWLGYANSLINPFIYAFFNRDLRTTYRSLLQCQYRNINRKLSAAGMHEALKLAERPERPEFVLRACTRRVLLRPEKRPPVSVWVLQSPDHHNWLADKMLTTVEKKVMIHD
Procedure: as §1, §2

[3] = pKi reported on a scale of 1 through 5, read-out: M3 (pKi) (converted)
[4] = read-out: 5HT2A (pKb) (converted)

Row | Structure (SMILES) | Ki (human 5HT1A receptors) | Ki (human M3 receptors; [3]) | Ki [1] | Ki (human 5HT2C receptors) | Kb (5-HT2A receptor; [4]) | Ki (human H1 receptors) | Ki [2] | Ki (human M1 receptors) | Ki (human 5HT7 receptors) | Ki (human M3 receptors) | Kb (5-HT2A receptor) | Ki (human 5HT7 receptors; pKi reported on a scale of 1 through 5, read-out: 5HT7 (pKi) (converted)) | Kb (5-HT2A receptor; pKb reported on a scale of 1 through 5, read-out: 5HT2A (pKb) (converted))
1 | O=C(O)C[C@@H]1CN(C2=Nc3cc(Cl)ccc3Oc3ccccc32)CCN1 [AB, (R,E)-2-(4-(8-chlorodibenzo[b,f][1,4]oxazepin-11-yl)piperazin-2-yl)acetic acid] | > 10000 nM | > 10000 nM | > 10000 nM | 100 to 977 nM | 31.6 to 97.7 nM | 100 to 977 nM | > 10000 nM | – | – | – | – | – | –
2 | O=C(O)CC1CN(C2=Nc3cc(Cl)ccc3Oc3ccccc32)CCN1 (stereo not drawn) [Compound E, (E)-2-(4-(8-chlorodibenzo[b,f][1,4]oxazepin-11-yl)piperazin-2-yl)acetic acid] | 1000 to 9770 nM | > 10000 nM | > 10000 nM | 100 to 977 nM | 31.6 to 97.7 nM | 100 to 977 nM | > 10000 nM | > 10000 nM | – | – | – | – | –
3 | COC(=O)C[C@@H]1CN(C2=Nc3cc(Cl)ccc3Oc3ccccc32)CCN1 [Compound P, (R,E)-methyl 2-(4-(8-chlorodibenzo[b,f][1,4]oxazepin-11-yl)piperazin-2-yl)acetate] | 1000 to 9770 nM | > 10000 nM | 2510 to 9770 nM | 100 to 977 nM | 31.6 to 97.7 nM | 100 to 977 nM | 2510 to 9770 nM | – | – | – | – | – | –
4 | CCOC(=O)CC1CN(C2=Nc3cc(Cl)ccc3Oc3ccccc32)CCN1C (stereo not drawn) [DN, (E)-ethyl 2-(4-(8-chlorodibenzo[b,f][1,4]oxazepin-11-yl)-1-methylpiperazin-2-yl)acetate] | – | > 10000 nM | 2510 to 9770 nM | 100 to 977 nM | 31.6 to 97.7 nM | 100 to 977 nM | 2510 to 9770 nM | 2510 to 4900 nM | – | – | – | – | –
5 | CN1CCN(C2=Nc3cc(Cl)ccc3Oc3ccccc32)C[C@@H]1CC(=O)O[C@@H]1CN2CCC1CC2 [DS, (S)-quinuclidin-3-yl 2-((S)-4-((E)-8-chlorodibenzo[b,f][1,4]oxazepin-11-yl)-1-methylpiperazin-2-yl)acetate] | 1000 to 9770 nM | – | – | 1000 to 9770 nM | – | – | > 10000 nM | – | > 10000 nM | > 10000 nM | > 100 nM | – | –
6 | CN1CCN(C2=Nc3cc(Cl)ccc3Oc3ccccc32)C[C@@H]1CC(=O)OC1CCOCC1 [DZ, (S,E)-tetrahydro-2H-pyran-4-yl 2-(4-(8-chlorodibenzo[b,f][1,4]oxazepin-11-yl)-1-methylpiperazin-2-yl)acetate] | 100 to 977 nM | > 10000 nM | – | 100 to 977 nM | 31.6 to 97.7 nM | – | 2510 to 9770 nM | – | – | – | – | > 10000 nM | –
7 | CN1CCN(C2=Nc3cc(Cl)ccc3Oc3ccccc32)C[C@@H]1CC(=O)N(CC(F)(F)F)CC(F)(F)F [EW, (S,E)-2-(4-(8-chlorodibenzo[b,f][1,4]oxazepin-11-yl)-1-methylpiperazin-2-yl)-N,N-bis(2,2,2-trifluoroethyl)acetamide] | 1000 to 9770 nM | – | – | 1000 to 9770 nM | – | 100 to 977 nM | > 10000 nM | 5010 to 9770 nM | – | – | – | – | > 100 nM
8 | CCOC(=O)CC1CN(C2=Nc3ccc(Cl)cc3Oc3ccccc32)CCN1 (stereo not drawn) [H, (E)-ethyl 2-(4-(7-chlorodibenzo[b,f][1,4]oxazepin-11-yl)piperazin-2-yl)acetate] | – | > 10000 nM | 631 to 2450 nM | 10 to 97.7 nM | 31.6 to 97.7 nM | 100 to 977 nM | 631 to 2450 nM | > 10000 nM | – | – | – | – | –
9 | COC(=O)CC1CN(C2=Nc3cc(Cl)ccc3Oc3ccccc32)CCN1 (stereo not drawn) [I, (E)-methyl 2-(4-(8-chlorodibenzo[b,f][1,4]oxazepin-11-yl)piperazin-2-yl)acetate] | 100 to 977 nM | > 10000 nM | 2510 to 9770 nM | 10 to 97.7 nM | 10 to 30.9 nM | 100 to 977 nM | 2510 to 9770 nM | 5010 to 9770 nM | – | – | – | – | –
10 | CCOC(=O)C[C@@H]1CN(C2=Nc3cc(Cl)ccc3Oc3ccccc32)CCN1 [O, (R,E)-ethyl 2-(4-(8-chlorodibenzo[b,f][1,4]oxazepin-11-yl)piperazin-2-yl)acetate] | 100 to 977 nM | > 10000 nM | 2510 to 9770 nM | 10 to 97.7 nM | 31.6 to 97.7 nM | 100 to 977 nM | 2510 to 9770 nM | – | – | – | – | – | –
